According to patent US20050222146A1, “N-substituted-n-sulfonylaminocyclopropane compounds and pharmaceutical use thereof” (priority 2003, published 2005):

Key:
[1] = molecular target: T1, aggrecanase-1 (Homo sapiens, UniProt O75173); assay: Aggrecanase-1 inhibitory action, Particle Assay (GAG release from aggrecan-containing polyacrylamide particles); type: biochemical; details: 37° C. for 15 hr, read-out: Experimental Example 1 IC50 AG1
T1 sequence (O75173 213-837): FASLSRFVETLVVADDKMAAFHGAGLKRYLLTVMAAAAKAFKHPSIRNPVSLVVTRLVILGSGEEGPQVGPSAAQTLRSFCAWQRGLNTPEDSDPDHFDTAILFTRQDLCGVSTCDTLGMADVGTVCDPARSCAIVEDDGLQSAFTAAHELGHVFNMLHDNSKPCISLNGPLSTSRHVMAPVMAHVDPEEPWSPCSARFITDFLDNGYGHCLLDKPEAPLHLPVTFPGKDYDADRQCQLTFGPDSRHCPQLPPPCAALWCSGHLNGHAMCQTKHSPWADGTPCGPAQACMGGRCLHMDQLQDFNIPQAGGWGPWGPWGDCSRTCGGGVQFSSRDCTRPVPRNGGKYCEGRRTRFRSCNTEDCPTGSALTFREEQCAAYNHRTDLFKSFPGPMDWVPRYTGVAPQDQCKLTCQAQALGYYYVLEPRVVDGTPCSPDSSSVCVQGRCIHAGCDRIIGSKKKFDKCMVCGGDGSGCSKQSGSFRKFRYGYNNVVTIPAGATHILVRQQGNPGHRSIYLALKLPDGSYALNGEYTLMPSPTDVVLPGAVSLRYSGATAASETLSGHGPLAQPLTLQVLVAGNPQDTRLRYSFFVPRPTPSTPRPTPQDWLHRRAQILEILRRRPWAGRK
Protocol: Aggrecanase-1 Inhibitory Action
Particle Assay was used for determination of aggrecanase activity.
(§1) The enzyme and substrate were diluted with Tris-HCl buffer, and test compounds were diluted with dimethyl sulfoxide (DMSO).
Test compounds and the enzyme were added into 96-well plate, and polyacrylamide particles containing aggrecan were added as a substrate and the mixture was incubated at 37° C. for 15 hr.
After incubation; the supernatant was transferred to another plate, and mixed with 1,9-dimethylmethylene blue. The absorbance at 595 nm was measured to quantify the amount of glycosaminoglycan (GAG) released in the reaction supernatant. Whale chondroitin sulfate was used as the standard of GAG. The inhibitory activity of the compound in each well (%) was calculated based on the values of enzyme-free well and inhibitor-free well. The inhibitory activity of the compound was represented as IC50 (μM).

[2] = molecular target: T2, MMP-1 (Homo sapiens, UniProt P03956); assay: MMP-1 inhibitory action, Type I collagen Activity Measurement kit (FITC-labeled collagen type I); type: biochemical; details: 37° C. for 3 hr, read-out: Experimental Example 2 IC50 MMP1
T2 sequence (P03956 100-469): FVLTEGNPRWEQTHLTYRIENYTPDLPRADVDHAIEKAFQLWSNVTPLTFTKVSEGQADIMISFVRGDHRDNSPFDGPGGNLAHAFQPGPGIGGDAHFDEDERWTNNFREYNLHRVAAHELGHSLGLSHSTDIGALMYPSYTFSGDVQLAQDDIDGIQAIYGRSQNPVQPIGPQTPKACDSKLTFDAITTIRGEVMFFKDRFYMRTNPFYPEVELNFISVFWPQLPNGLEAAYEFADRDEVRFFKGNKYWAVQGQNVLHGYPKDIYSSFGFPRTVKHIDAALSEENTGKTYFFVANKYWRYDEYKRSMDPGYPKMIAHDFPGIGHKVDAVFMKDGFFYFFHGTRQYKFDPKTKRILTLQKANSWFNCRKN
Protocol: For MMP-1 Assay, Type I collagen Activity Measurement kit (YAGAI YU-72013) modified to a 96-well plate format was used.
The principle of the kit is based on the property of collagen that becomes soluble in ethanol after being cleaved by MMP-1.
as §1
The enzyme and test compounds were added into 96-well plate, and fluorescein isothiocianate (FITC)-labeled collagen type I was added as a substrate and the mixture was incubated at 37° C. for 3 hr.
The reaction was terminated by addition of Tris-HCl buffer containing ethanol. After centrifugation, the supernatant containing denatured substrate was transferred to another 96-well plate. The collagenase activity of MMP-1 was determined by measuring FITC fluorescence intensity (excitation wavelength 485 nm, emission wavelength 530 nm) of each well. The inhibitory activity of the compound in each well (%) was calculated based on the values of enzyme-free well and inhibitor-free well. The inhibitory activity of the compound was represented as IC50 (μM).

IC50 [1]	IC50 [2]	SMILES
< 0.1 µM	≥ 10 µM	O=C(O)CN([C@]1(C(=O)O)C[C@H]1c1cccc(OC2CCCCC2)c1)S(=O)(=O)c1ccc(-c2ccc(Cl)cc2)cc1 (relative stereo) [Example 1-48, (1R*,2S*)-1-[carboxymethyl-(4′-chloro-biphenyl-4-sulfonyl)-amino]-2-(3-cyclohexyloxy-phenyl)-cyclopropanecarboxylic acid]
< 0.1 µM	≥ 10 µM	O=C(O)c1cccc(CN([C@]2(C(=O)O)C[C@H]2c2cccc(Oc3ccccc3)c2)S(=O)(=O)c2ccc(-c3ccc(Cl)cc3)cc2)c1 (relative stereo) [Example 1-51, (1R*,2S*)-3-{[[1-carboxy-2-(3-phenoxy-phenyl)-cyclopropyl]-(4′-chloro-biphenyl-4-sulfonyl)-amino]-methyl}-benzoic acid]
< 1 µM	≥ 10 µM	CCOC(=O)CN([C@]1(C(=O)O)C[C@H]1c1cccc(Oc2ccccc2)c1)S(=O)(=O)c1ccc(-c2ccc(Cl)cc2)cc1 (relative stereo) [Example 1-52, (1R*,2S*)-1-[(4′-chloro-biphenyl-4-sulfonyl)-ethoxycarbonylmethyl-amino]-2-(3-phenoxy-phenyl)-cyclopropanecarboxylic acid]
< 1 µM	≥ 10 µM	CN([C@]1(C(=O)O)C[C@H]1c1cccc(Oc2ccccc2)c1)S(=O)(=O)c1ccc(-c2ccc(Cl)cc2)cc1 (relative stereo) [Example 1-53, (1R*,2S*)-1-[(4′-chloro-biphenyl-4-sulfonyl)-methyl-amino]-2-(3-phenoxy-phenyl)-cyclopropanecarboxylic acid]
< 1 µM	≥ 10 µM	O=C(O)c1cccnc1CN([C@]1(C(=O)O)C[C@H]1c1ccccc1)S(=O)(=O)c1ccc(-c2ccc(Cl)cc2)cc1 (relative stereo) [Example 1-56, 2-{[((1R*,2S*)-1-carboxy-2-phenyl-cyclopropyl)-(4′-chloro-biphenyl-4-sulfonyl)-amino]-methyl}-nicotinic acid]
< 1 µM	≥ 10 µM	O=C(O)c1csc(CN([C@]2(C(=O)O)C[C@H]2c2ccccc2)S(=O)(=O)c2ccc(-c3ccc(Cl)cc3)cc2)n1 (relative stereo) [Example 1-60, 2-{[((1R*, 2S*)-1-carboxy-2-phenyl-cyclopropyl)-(4′-chloro-biphenyl-4-sulfonyl)-amino]-methyl}-thiazole-4-carboxylic acid]
< 1 µM	≥ 10 µM	O=C(O)[C@@]1(N(CCNS(=O)(=O)C(F)(F)F)S(=O)(=O)c2ccc(-c3ccc(Cl)cc3)cc2)C[C@H]1c1ccccc1 (relative stereo) [Example 1-63, (1R*,2S*)-1-[(4′-chloro-biphenyl-4-sulfonyl)-(2-trifluoromethanesulfonylamino-ethyl)-amino]-2-phenyl-cyclopropanecarboxylic acid]
< 0.1 µM	≥ 10 µM	CC(C)(C)OC(=O)N1CCC(Oc2cccc([C@H]3C[C@]3(C(=O)O)N(CC(=O)O)S(=O)(=O)c3ccc(-c4ccc(Cl)cc4)cc3)c2)CC1 (relative stereo) [Example 1-67, 4-(3-{(1R*,2S*)-2-Carboxy-2-[carboxymethyl-(4′-chloro-biphenyl-4-sulfonyl)-amino]-cyclopropyl}-phenoxy)-piperidine-1-carboxylic acid tert-butyl ester]
< 1 µM	≥ 10 µM	O=C(O)[C@@]1(N(Cc2nsc(=O)[nH]2)S(=O)(=O)c2ccc(-c3ccc(Cl)cc3)cc2)C[C@H]1c1ccccc1 (relative stereo) [Example 1-71, (1R*,2S*)-1-[(4′-chloro-biphenyl-4-sulfonyl)-(5-oxo-4,5-dihydro-[1,2,4]thiadiazol-3-ylmethyl)-amino]-2-phenyl-cyclopropanecarboxylic acid]

Second part, the compound before the results:

SMILES	IC50 [1]	IC50 [2]
CC(C)COc1cccc([C@@H]2C[C@@]2(C(=O)O)N(CC(=O)O)S(=O)(=O)c2ccc(-c3ccc(Cl)cc3)cc2)c1 (relative stereo) [Example 1-47, (1R*,2S*)-1-[carboxymethyl-(4′-chloro-biphenyl-4-sulfonyl)-amino]-2-(3-isobutoxy-phenyl)-cyclopropanecarboxylic acid]	< 0.1 µM	≥ 10 µM
O=C(O)c1ccc(CN([C@]2(C(=O)O)C[C@H]2c2ccccc2)S(=O)(=O)c2ccc(-c3ccc(Cl)cc3)cc2)o1 (relative stereo) [Example 1-55, 5-{[((1R*,2S*)-1-carboxy-2-phenyl-cyclopropyl)-(4′-chloro-biphenyl-4-sulfonyl)-amino]-methyl}-furan-2-carboxylic acid]	< 1 µM	≥ 10 µM
O=C(CN([C@]1(C(=O)O)C[C@H]1c1ccccc1)S(=O)(=O)c1ccc(-c2ccc(Cl)cc2)cc1)Nc1nnn[nH]1 (relative stereo) [Example 1-61, (1R*,2S*)-1-{(4′-chloro-biphenyl-4-sulfonyl)-[(1H-tetrazol-5-ylcarbamoyl)-methyl]-amino}-2-phenyl-cyclopropanecarboxylic acid]	< 1 µM	≥ 10 µM
CS(=O)(=O)Nc1cccc(CN([C@]2(C(=O)O)C[C@H]2c2ccccc2)S(=O)(=O)c2ccc(-c3ccc(Cl)cc3)cc2)c1 (relative stereo) [Example 1-62, (1R*,2S*)-1-[(4′-chloro-biphenyl-4-sulfonyl)-(3-methanesulfonylamino-benzyl)-amino]-2-phenyl-cyclopropanecarboxylic acid]	< 1 µM	≥ 10 µM
O=C(O)CN([C@]1(C(=O)O)C[C@H]1c1cccc(O)c1)S(=O)(=O)c1ccc(-c2ccc(Cl)cc2)cc1 (relative stereo) [Example 1-66, (1R*,2S*)-1-[carboxymethyl-(4′-chloro-biphenyl-4-sulfonyl)-amino]-2-(3-hydroxy-phenyl)-cyclopropanecarboxylic acid]	< 0.1 µM	≥ 10 µM
O=C(O)CN([C@]1(C(=O)O)C[C@H]1c1cccc(OC2CCNCC2)c1)S(=O)(=O)c1ccc(-c2ccc(Cl)cc2)cc1 (relative stereo) [Example 1-68, (1R*,2S*)-1-[carboxymethyl-(4′-chloro-biphenyl-4-sulfonyl)-amino]-2-[3-(piperidin-4-yloxy)-phenyl]-cyclopropanecarboxylic acid]	< 1 µM	≥ 10 µM
O=C(O)c1cccn1CCN([C@]1(C(=O)O)C[C@H]1c1ccccc1)S(=O)(=O)c1ccc(-c2ccc(Cl)cc2)cc1 (relative stereo) [Example 1-69, 1-{2-[((1R*,2S*)-1-carboxy-2-phenyl-cyclopropyl)-(4′-chloro-biphenyl-4-sulfonyl)-amino]-ethyl}-1H-pyrrole-2-carboxylic acid]	< 1 µM	≥ 10 µM
CC(C)(C)OC(=O)N1CCC([C@H]2C[C@]2(C(=O)O)N(Cc2cccc(C(=O)O)c2)S(=O)(=O)c2ccc(-c3ccc(Cl)cc3)cc2)CC1 (relative stereo) [Example 1-70, 4-{(1R*,2S*)-2-carboxy-2-[(3-carboxy-benzyl)-(4′-chloro-biphenyl-4-sulfonyl)-amino]-cyclopropyl}-piperidin-1-carboxylic acid tert-butyl ester]	< 1 µM	≥ 10 µM
